We go through five compounds from publication PMC11188305, “Reproductive and fetal toxicity studies of histamine H3 receptor antagonist DL76 used in mice to prevent maximal electroshock-induced seizure” (Frontiers in Pharmacology, 2024).

Data set [1] relates to experimental seizure models. On the set-up: method as in earlier work. The conditions noted are these: acute and chronic experimental seizure models; ref Brown et al., 2001; Vohora et al., 2010; Witkin and Nelson, 2004; Sadek et al., 2015; Bastaki et al., 2018; cited from earlier work.
For data set [2], the system named is MES-induced seizures in mice. As to the kind of experiment: Maximal electroshock (MES)-induced seizure, duration of tonic hind limb extension (THLE). It counts as in vivo, C57BL/6J mice. The source says:
As previously described and with a slight modification in the intensity applied, seizures were elicited in mice with a 50-Hz alternating current of 120 mA intensity ([Kaminski et al., 2015]; [Song et al., 2020]; [Xiao et al., 2021]; [Hua et al., 2023]). The current was applied through ear electrodes for 0.2 s. Protection against the spread of MES-induced convulsion was defined as the abolition of the tonic hind limb extension (THLE) component of the seizure ([Kaminski et al., 2015]; [Song et al., 2020]; [Xiao et al., 2021]; [Hua et al., 2023]). The animals were divided into the following experimental groups, with eight mice in each: the control group injected with saline, the positive control group injected with 300 mg/kg of VPA (the minimal dose of VPA that protected animals against the spread of MES-induced convulsions without mortality in mice) ([Sadek et al., 2015]; [Bastaki et al., 2018]), and four groups that were administered the test compound DL76 at doses of 7.5 mg/kg, 15 mg/kg, 30 mg/kg, or 60 mg/kg. All drugs were administered 30–45 min before the MES challenge. In a further group of eight mice, the most promising and protective dose of DL76 (60 mg/kg, i.p.) was co-injected with RAM (10 mg/kg, i.p.), 30 min apart and 15 min prior to the MES test. Protection against the spread of MES-induced convulsion was defined as the abolition of the THLE component of the convulsion ([Sadek et al., 2015]; [Alachkar et al., 2018]; [Bastaki et al., 2018]).
Statistical analyses employed SPSS 26.0 (IBM Middle East, Dubai, UAE). Data were presented as means ± SEM. […] Fetal abnormality data were presented as counts and percentages. Fisher’s exact test compared the percentages of abnormalities between the control group (saline) and the different dose groups. All tests were two-tailed, and significance was set at p < 0.05.

Data set [3] concerns C57BL/6 mice. Also on record: method as in Chateauvieux et al., 2010. To be noted: ref Chateauvieux et al., 2010; cited from earlier work.
Data set [4] has as its system MES-induced seizures in mice. On the set-up: method as in Sadek et al., 2015; Bastaki et al., 2018. To be noted: ref Sadek et al., 2015, Bastaki et al., 2018; cited from earlier work.
For data set [5], the system named is photosensitivity seizure model. On the set-up: method as in Lamb, 2020. The conditions noted are these: adult patients; ref Lamb, 2020; cited from earlier work.

Regarding `CCC(C)(C)c1ccc(OCCCN2CCCCC2)cc1` [DL77], the anticonvulsant efficacy entry in data set [1] was “anticonvulsant efficacy”.

As for `S=C(NC1CCCCC1)N1CCC(c2cnc[nH]2)CC1` [thioperamide], in data set [1], the anticonvulsant efficacy result is “anticonvulsant efficacy”.

For the compound `C[C@@H](N)Cc1c[nH]cn1` [RAM, (R)-α-methylhistamine, reference compound], the “effect of RAM alone on MES-induced convulsions” value in data set [2] (female adult mice, RAM 10 mg/kg i.p., p = 0.91 saline-saline vs. saline-RAM) is on record as “results similar to those witnessed in male adult mice”. Further, in data set [2] (male adult mice, RAM 10 mg/kg i.p., p = 0.602), the “effect on MES-induced convulsions when injected alone” value is “did not affect MES-induced convulsions”. For the same compound, the “activity of RAM injected alone in MES-induced convulsion” value in data set [2] (mice, both sexes, RAM 10 mg/kg) is “neither a protective nor an epileptogenic activity”.

Regarding `CCCC(CCC)C(=O)O` [VPA, valproic acid, reference compound], the malformations entry in data set [3] is on record as “induce malformations”. For the same compound, the “minimal dose that protected animals against the spread of MES-induced convulsions without mortality” value in data set [4] is listed as 300 mg/kg. The “difference of protective effects between male and female mice” value in data set [2] (VPA 300 mg/kg i.p., p = 0.164) is reported as “no significant differences”. In addition, the “protection against MES-induced convulsions” value in data set [2] (female adult mice, VPA 300 mg/kg i.p.) was “significantly protected”.

On to `Clc1ccc(CCCOCCCN2CCCCC2)cc1` [PIT], for which the “effects against the photosensitivity seizure model” value in data set [5] is listed as “protective effects”.
